Key:
[1] = test system: mouse model of experimental closed head injury; experiment: Mouse model of experimental closed head injury: cognitive rehabilitation after traumatic brain injury; type: in vivo; conditions: closed head injury by weight-drop; s.c. from day 8 onwards, three times a week; behavioral tests at baseline, day 7, day 30
Description: A mouse model of experimental closed head injury disclosed by Yatsiv et al. in FASEB J. 2005, 19:1701-1703 is employed for testing the efficacy of the present compounds to improve functional recovery after a head trauma caused by a weight-drop onto an exposed skull.
Severity of the injury is assessed according to the Neurological Severity Score disclosed by Beni-Adani et al. (J. Pharmacol. Exp. Ther. 2001, 296:57-63) on the basis of ten individual tasks reflecting motor function, alertness, and behaviour.
Each test compound, control compound, or vehicle is administered subcutaneously from day 8 onwards, three times a week.
Behavioral tests, including open field (OF), elevated plus maze (EMP), and social recognition tests are carried out at baseline, on day 7, and day 30.
After euthanization, plasma levels of cytokines and TBI-specific biomarkers, such as S100B, are determined and the brains are evaluated histologically.

[2] = test system: rat model of experimental closed head injury; experiment: Rat model of experimental closed head injury: behaviour, brain edema, lesion volume, inflammatory markers; type: in vivo; conditions: oral 6 h post-injury
Description: A rat model of experimental closed head injury disclosed by Bilgen et al. (Neurorehabil. Neural Repair, 2005, 19:219-226) with some modifications is employed for testing the effect of the present compounds on behaviour, brain edema, lesion volume, and inflammatory markers after a head trauma.
Each test compound, control compound, or vehicle is administered orally 6 h post-injury.
In vivo T2 weighted magnetic resonance imaging (MRI) is performed on the animals to depict the pathologies, including lesion size, tissue viability, and brain edema, of the resulting injuries in the corresponding neuronal tissues at 24 h and day 3.
Behavioral tests, including a seven-point neuroscore test modified from Zausinger et al. (Brain Res., 2000, 863:94-105), are used to assess motor and behavioural deficits by a blinded investigator at baseline and on days 1, 3, 7, 14, and 28 post-injury. Additionally, sensimotor recovery of forelimb and hindlimb responses to tactile and proprioceptive stimulation is evaluated by a limb-placing test essentially as described by Jolkkonen et al. in Restor. Neurol. Neurosci., 2000, 17:211-216.
After euthanization, histological evaluation of the injury in the cortex and hippocampus is performed. Additionally, inflammatory markers, astrocytic and microglial activation is evaluated by immunohistochemistry.

[3] = test system: MPTP mouse model of Parkinson's disease; experiment: MPTP mouse model of Parkinson's disease: dopaminergic system protection; type: in vivo; conditions: MPTP 4 x 15 mg/kg i.p.; daily i.p. for 14 days from Day 0; striatal tissue by HPLC
Description: In the model, depletion of striatal dopamine (DA) and dopaminergic neuronal death in the substantia nigra (SN) is caused by systemic administration of MPTP (1-methyl-4-phenyl-1,2,3,6-tetrahydropyridine). To be more specific, MPTP is administered twice daily, 3 hours apart, by i.p. injections on Day 0 and Day 1. Each dose is 15 mg/kg, the total dose being 60 mg/kg.
Each test compound, control or vehicle is administered by daily i.p. injections for 14 days starting from Day 0.
After euthanization on Day 14, blood samples are collected by cardiac punctures and stored at −80° C. for further analysis. Blood is removed from the brains by transcardial perfusion with saline. Posterior brain blocks containing the SN are then removed and processed for cryosectioning, while striata are dissected in toto, pooled, weighted, snap-frozen in liquid nitrogen, and stored at −80° C.
20-μm-thick coronal cryosections are analysed immunohistochemically for the expression of tyrosine hydroxylase (TH), a rate-limiting enzyme in dopamine synthesis by counting the number of TH-positive neurons bilaterally in the SN.
Striatal tissue samples are analysed for DA and its two metabolites, 3,4-dihydroxyphenylacetic acid (DOPAC) and homovanillic acid (HVA), levels by HPLC.

MPTP model = experiment: Modified MPTP mouse model: dopaminergic system protection and behavioral skills; type: in vivo, mice; conditions: MPTP 4 x 10 mg/kg i.p. Day 1; s.c. three times a week Day 2 to Day 21; rotarod, pole, social recognition tests
Description: In this administration scheme, mice are injected i.p. four times with a MPTP dose of 10 mg/kg, two hours apart, on Day 1. Each test compound, control and vehicle are administered s.c. three times a week from Day 2 until Day 21. The present compounds are administered either alone or in combination with a non-steroidal anti-inflammatory drug, antioxidant, and/or metal ions chelate. One week prior to the MPTP dosing, the mice are trained for a rotarod performance test for three days. The rotarod test is then repeated four times during the course of the experiment. Motor performance and coordination is also tested by a pole test. Social recognition test is conducted once on the last days of the experiment.

[4] = T2 weighted MRI at 24 h and day 3

Q: What does the source list for `CCCCC/C=C\C/C=C\CCCCCCCC(=O)Nc1ccc(OC(=O)c2cccc(O)c2O)c(OCCOc2ccccc2OC(=O)c2cccc(O)c2O)c1` [TBI-446, 2-(2-(2-((2,3-dihydroxybenzoyl)oxy)-5-((9Z,12Z)-octadeca-9,12-dienamido)phenoxy)ethoxy)phenyl 2,3-dihydroxybenzoate]?
A: cognitive rehabilitation of the mice [1]: improved cognitive rehabilitation; brain edema after closed head injury [2, 4]: decreased; lesion volume after closed head injury [2, 4]: decreased; levels of inflammatory markers ([2]; immunohistochemistry after euthanization): decreased; protection of the dopaminergic system from reduction of striatal DA levels caused by MPTP [3]: protect the dopaminergic system from the reduction of the DA levels; behavioural recovery (MPTP model): behavioural recovery
